Source: patent publication US12550894B2, “Insecticidal formulation for vector and pest control with increased contact efficacy” (priority 2018, dated 2026)

How the values were obtained:
Assay in all cases: Long term contact efficacy against mosquitos (example 12)
Assay type in all cases: in vivo
Conditions in all cases: glazed tiles, 1 day after treatment
Culex quinque fasciatus = system: Culex quinque fasciatus
Source text: (§1) Glazed tiles have been treated with the WP 10 formulations as described in example 9 based on 4-[(5S)-5-(3,5-dichloro-4-fluorophenyl)-5-(trifluoromethyl)-4,5-dihydro-1,2-oxazol-3-yl]-N-[(4R)-2-ethyl-3-oxo-1,2-oxazolidin-4-yl]-2-methylbenzamide as described in Example 4 and then stored at ambient conditions. […] The contact bioassays have been conducted as outlined in example 9.

Anopheles funestus = system: Anopheles funestus
Source text: as §1

Aedes Aegypti = system: Aedes Aegypti
Source text: as §1

CCN1OC[C@@H](NC(=O)c2ccc(C3=NO[C@@](c4cc(Cl)c(F)c(Cl)c4)(C(F)(F)F)C3)cc2C)C1=O [Reference crystalline spray, 4-[(5S)-5-(3,5-dichloro-4-fluorophenyl)-5-(trifluoromethyl)-4,5-dihydro-1,2-oxazol-3-yl]-N-[(4R)-2-ethyl-3-oxo-1,2-oxazolidin-4-yl]-2-methylbenzamide]
Mortality [%] Culex quinque fasciatus 24 h (Culex quinque fasciatus; 0.8 mg a.i./m^2): 25% | Mortality [%] Culex quinque fasciatus 24 h (Culex quinque fasciatus; 4 mg a.i./m^2): 88% | Mortality [%] Culex quinque fasciatus 24 h (Culex quinque fasciatus; 20 mg a.i./m^2): 100% | Mortality [%] Anopheles funestus 24 h (Anopheles funestus; 0.8 mg a.i./m^2): 0% | Mortality [%] Anopheles funestus 24 h (Anopheles funestus; 4 mg a.i./m^2): 30% | Mortality [%] Anopheles funestus 24 h (Anopheles funestus; 20 mg a.i./m^2): 90% | Mortality [%] Aedes Aegypti 24 h (Aedes Aegypti; 0.8 mg a.i./m^2): 0% | Mortality [%] Aedes Aegypti 24 h (Aedes Aegypti; 4 mg a.i./m^2): 89% | Mortality [%] Aedes Aegypti 24 h (Aedes Aegypti; 20 mg a.i./m^2): 100%
